Measurements published in patent publication US9890140B2, “Maleate salts of a quinazoline derivative useful as an antiangiogenic agent” (AstraZeneca AB, priority 2003, dated 2018).

Tests used:
[1] = Solid state stability of the free base on dehydration / micronisation (XRPD); type: physicochemical
Protocol: This is shown by a broadening of the peaks and formation of an amorphous 'hump'-see FIG. 4. […] The X-ray powder diffraction spectra were determined by mounting a sample of the crystalline salt on Siemens single silicon crystal (SSC) wafer mounts and spreading out the sample into a thin layer with the aid of a microscope slide. The sample was spun at 30 revolutions per minute (to improve counting statistics) and irradiated with X-rays generated by a copper long-fine focus tube operated at 40 kV and 40 mA with a wavelength of 1.5406 angstroms. The collimated X-ray source was passed through an automatic variable divergence slit set at […] and the reflected radiation directed through a 2 mm antiscatter slit and a 0.2 mm detector slit. The sample was exposed for 1 second per 0.02 degree 2-theta increment (continuous scan mode) over the range 2 degrees to 40 degrees 2-theta in theta-theta mode. The running time was 31 minutes and 41 seconds. The instrument was equipped with a scintillation counter as detector. Control and data capture was by means of a Dell Optiplex 686 NT 4.0 Workstation operating with Diffract+ software. Persons skilled in the art of X-ray powder diffraction will realise that the relative intensity of peaks can be affected by, for example, grains above 30 microns in size and non-unitary aspect ratios which may affect analysis of samples. […]

Calu-6 tumour xenograft = experiment: In vivo solid tumour disease model; design: species or system female athymic Swiss nu/nu mice; conditions: once-daily oral, 28 days
Protocol: (c) In Vivo Solid Tumour Disease Model This test measures the capacity of compounds to inhibit solid tumour growth. CaLu-6 tumour xenografts were established in the flank of female athymic Swiss nu/nu mice, by subcutaneous injection of 1×10^6 Calu-6 cells/mouse in 100 μl of a 50% (v/v) solution of Matrigel in serum free culture medium. […] Tumours were measured using vernier calipers and volumes were calculated as: (l×w)×√(l×w)×(π/6), where l is the longest diameter and w the diameter perpendicular to the longest. Test compounds were administered orally once daily for a minimum of 21 days, and control animals received compound diluent. Tumours were measured twice weekly. The level of growth inhibition was calculated by comparison of the mean tumour volume of the control group versus the treatment group using a Student T test and/or a Mann-Whitney Rank Sum Test. The inhibitory effect of compound treatment was considered significant when p<0.05.

[2] = tested on: VEGF-stimulated proliferation of human umbilical vein endothelial cells (HUVEC); experiment: In vitro HUVEC proliferation assay, VEGF-stimulated; type: cell-based; conditions: read-out: IC50 for inhibition of VEGF-stimulated endothelial cell proliferation
Protocol: (b) In Vitro HUVEC Proliferation Assay
(§1) HUVEC cells were isolated in MCDB 131 (Gibco BRL)+7.5% v/v foetal calf serum (FCS) and were plated out (at passage 2 to 8), in MCDB 131+2% v/v FCS+3 μg/ml heparin+1 μg/ml hydrocortisone, at a concentration of 1000 cells/well in 96 well plates. After a minimum of 4 hours they were dosed with VEGF (3 ng/ml) and compound. The cultures were then incubated for 4 days at 37° C. with 7.5% CO2. On day 4 the cultures were pulsed with 1 μCi/well of tritiated-thymidine (Amersham product TRA 61) and incubated for 4 hours. The cells were harvested using a 96-well plate harvester (Tomtek) and then assayed for incorporation of tritium with a Beta plate counter. Incorporation of radioactivity into cells, expressed as cpm, was used to measure inhibition of growth factor-stimulated cell proliferation by compounds. This methodology was also used to assess compound effects versus basal HUVEC growth (i.e. endothelial cell proliferation in MCDB 131+2% v/v FCS […]+3 μg/ml heparin+1 μg/ml hydrocortisone without the addition of exogenous VEGF).

[3] = tested on: basal HUVEC growth (without exogenous VEGF); experiment: In vitro HUVEC proliferation assay, basal growth; type: cell-based; conditions: Homo sapiens, no exogenous VEGF, read-out: IC50 for inhibition of basal endothelial cell proliferation
Protocol: as §1

[4] = Crystallinity of AZD2171 salts; type: physicochemical
[5] = Dynamic vapour sorption, moisture content at 80% RH; type: physicochemical; conditions: 80% relative humidity
Protocol: Dynamic Vapour Sorption Analytical Instrument: Surface Measurements Systems Dynamic Vapour Sorption Analyser. About 5 mg of material contained in a quartz holder at 25° C. was subjected to humidified nitrogen at the following relative humidities (RH): 0, 20, 40, 60, 80, 95, 80, 60, 40, 20, 0% RH in duplicate.

[6] = Evidence for polymorphism from DSC thermograms; type: physicochemical
Protocol: Analytical Instrument: Mettler DSC820e. Typically less than 5 mg of material contained in a 40 μl aluminium pan fitted with a pierced lid was heated over the temperature range 25° C. to 325° C. at a constant heating rate of 10° C. per minute. A purge gas using nitrogen was used—flow rate 100 ml per minute.

[7] = Evidence of hydrate formation (vapour sorption or TGA); type: physicochemical; conditions: vapour sorption (hysteresis, water absorption) or TGA
Protocol: About 5 mg of material contained in a quartz holder at 25° C. was subjected to humidified nitrogen at the following relative humidities (RH): 0, 20, 40, 60, 80, 95, 80, 60, 40, 20, 0% RH in duplicate. Typically between 3 and 12 mg of material contained in a 70 μl alox (aluminium oxide) crucible was heated over the temperature range 25° C. to 325° C. at a constant heating rate of 10° C. per minute. A purge gas using helium was used—flow rate 50 ml per minute.

Molecule | Solid form after dehydration ([1]; heating to 100° C., FIG. 3) | Solid form after particle size reduction ([1]; micronisation, FIG. 4) | Inhibition of growth of Calu-6 tumour xenograft (Calu-6 tumour xenograft; 1.5 mg/kg/day, P<0.01) | Inhibition of growth of Calu-6 tumour xenograft (Calu-6 tumour xenograft; 3 mg/kg/day, P<0.0001) | Inhibition of growth of Calu-6 tumour xenograft (Calu-6 tumour xenograft; 6 mg/kg/day, P<0.0001) | IC50 [2] | IC50 [3] | Crystalline (Yes/No) [4] | Moisture Content at 80% RH [5] | No of Polymorphs [6] | Evidence of Hydrate Formation (Yes/No) [7]
COc1cc2c(Oc3ccc4[nH]c(C)cc4c3F)ncnc2cc1OCCCN1CCCC1 [AZD2171, 4-((4-fluoro-2-methyl-1H-indol-5-yl)oxy)-6-methoxy-7-(3-(pyrrolidin-1-yl)propoxy)quinazoline] | becomes amorphous | amorphous material does indeed form | 49% | 69% | 91% | 0.4 ± 0.2 nM | > 500 nM | – | – | – | –
Fumarate | – | – | – | – | – | – | – | Yes | 3.5% | ≧3 | No
Malonate | – | – | – | – | – | – | – | Yes | – | ≧3 | Yes
